Experimental data: patent US9376425B2, “Heterocyclic compounds as MDM2 inhibitors for the treatment of cancer” (AMGEN INC., priority 2011, dated 2016)

Target: T1, human MDM2 (GST-hMDM2 1-188), interaction with biotinylated-p53 (1-83) (Homo sapiens, UniProt Q00987)
T1 construct: Amino acid residues 1-188 of human MDM2 were expressed; made in house; host or cells: Escherichia coli
Experiment: improved HTRF assay (HTRF2 assay), inhibition of HDM2-p53 interaction
Format: binding
Conditions: 0.2 nM GST-hMDM2, 0.5 nM biotinylated-p53, 100 mM KF
How it was run: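 GST-hMDM2 preincubated 20 min at RT with serially diluted compound, then biotinylated p53 (1-83, E. coli) added for 60 min. Detection with SA-XLent, anti-GST cryptate and KF, equilibrated >4 h; final DMSO 2%. TR-FRET read; % inhibition calculated relative to nutlin-3.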

T1 sequence (Q00987 1-188): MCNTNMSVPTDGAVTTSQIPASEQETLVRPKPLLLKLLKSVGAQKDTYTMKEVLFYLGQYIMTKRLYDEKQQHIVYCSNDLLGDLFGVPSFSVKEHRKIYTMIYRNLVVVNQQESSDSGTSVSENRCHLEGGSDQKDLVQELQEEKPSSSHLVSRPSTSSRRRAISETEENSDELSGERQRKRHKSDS

| Compound | IC50 |
| --- | --- |
| CC(C)(C)S(=O)(=O)C[C@H](C1CC1)N1C(=O)[C@@](C)(CC(=O)O)O[C@H](c2cccc(Cl)c2)[C@H]1c1ccc(Cl)c(F)c1 (single isomer, unassigned) [Example 412, 2-((2R,5R,6R)-4-((S)-2-(tert-Butylsulfonyl)-1-cyclopropylethyl)-5-(4-chloro-3-fluorophenyl)-6-(3-chlorophenyl)-2-methyl-3-oxomorpholin-2-yl)acetic acid or 2-((2S,5R,6R)-4-((S)-2-(tert-butylsulfonyl)-1-cyclopropylethyl)-5-(4-chloro-3-fluorophenyl)-6-(3-chlorophenyl)-2-methyl-3-oxomorpholin-2-yl)acetic acid] | 11 nM |
| CC[C@@H]([C@H](C)S(=O)(=O)C(C)C)N1C(=O)[C@@H](CC(=O)O)O[C@H](c2cccc(Cl)c2)[C@H]1c1ccc(Cl)cc1 (single isomer, unassigned) [Example 413] | < 1 nM |
| CC[C@@H]([C@H](C)S(=O)(=O)C(C)C)N1C(=O)[C@@H](CC(=O)O)O[C@H](c2cccc(Cl)c2)[C@H]1c1ccc(Cl)cc1 (single isomer, unassigned) [Example 414] | 1 nM |
| CC[C@@H]([C@H](C)S(=O)(=O)C(C)C)N1C(=O)[C@@H](CC(=O)O)O[C@H](c2cccc(Cl)c2)[C@H]1c1ccc(Cl)cc1 (single isomer, unassigned) [Example 415] | 1 nM |
| CC[C@@H]([C@H](C)S(=O)(=O)C(C)C)N1C(=O)[C@@H](CC(=O)O)O[C@H](c2cccc(Cl)c2)[C@H]1c1ccc(Cl)cc1 (single isomer, unassigned) [Example 416] | 4 nM |
| CC[C@@H]([C@H](C)S(=O)(=O)C(C)(C)C)N1C(=O)[C@@H](CC(=O)O)O[C@H](c2cccc(Cl)c2)[C@H]1c1ccc(Cl)cc1 (single isomer, unassigned) [Example 419] | 4 nM |
| CC[C@@H]([C@H](C)S(=O)(=O)C(C)(C)C)N1C(=O)[C@@H](CC(=O)O)O[C@H](c2cccc(Cl)c2)[C@H]1c1ccc(Cl)cc1 (single isomer, unassigned) [Example 420] | 12 nM |
| CC(C)S(=O)(=O)[C@H]1CCC[C@@H]1N1C(=O)[C@@H](CC(=O)O)O[C@H](c2cccc(Cl)c2)[C@H]1c1ccc(Cl)cc1 (single isomer, unassigned) [Example 421] | 13600 nM |
| CC(C)S(=O)(=O)[C@H]1CCC[C@@H]1N1C(=O)[C@@H](CC(=O)O)O[C@H](c2cccc(Cl)c2)[C@H]1c1ccc(Cl)cc1 (single isomer, unassigned) [Example 422] | 3 nM |
| C[C@@H](CS(=O)(=O)C(C)(C)C)N1C(=O)[C@@H](CC(=O)O)O[C@H](c2cc(F)cc(Cl)c2)[C@H]1c1ccc(Cl)c(F)c1 (single isomer, unassigned) [Example 423, 2-((2R,5R,6R)-4-((S)-1-(tert-Butylsulfonyl)propan-2-yl)-5-(4-chloro-3-fluorophenyl)-6-(3-chloro-5-fluorophenyl)-3-oxomorpholin-2-yl)acetic acid or 2-((2S,5R,6R)-4-((S)-1-(tert-butylsulfonyl)propan-2-yl)-5-(4-chloro-3-fluorophenyl)-6-(3-chloro-5-fluorophenyl)-3-oxomorpholin-2-yl)acetic acid] | 1 nM |
| C[C@@H](CS(=O)(=O)C(C)(C)C)N1C(=O)[C@@H](CC(=O)O)O[C@H](c2cc(F)cc(Cl)c2)[C@H]1c1ccc(Cl)c(F)c1 (single isomer, unassigned) [Example 424, 2-((2R,5R,6R)-4-((S)-1-(tert-Butylsulfonyl)propan-2-yl)-5-(4-chloro-3-fluorophenyl)-6-(3-chloro-5-fluorophenyl)-3-oxomorpholin-2-yl)acetic acid or 2-((2S,5R,6R)-4-((S)-1-(tert-butylsulfonyl)propan-2-yl)-5-(4-chloro-3-fluorophenyl)-6-(3-chloro-5-fluorophenyl)-3-oxomorpholin-2-yl)acetic acid] | 3 nM |
| CC[C@@H](CS(=O)(=O)C(C)(C)C)N1C(=O)[C@@H](CC(=O)O)O[C@H](c2cc(F)cc(Cl)c2)[C@H]1c1ccc(Cl)c(F)c1 (single isomer, unassigned) [Example 425, 2-((2R,5R,6R)-4-((S)-1-(tert-Butylsulfonyl)butan-2-yl)-5-(4-chloro-3-fluorophenyl)-6-(3-chloro-5-fluorophenyl)-3-oxomorpholin-2-yl)acetic acid or 2-((2S,5R,6R)-4-((S)-1-(tert-butylsulfonyl)butan-2-yl)-5-(4-chloro-3-fluorophenyl)-6-(3-chloro-5-fluorophenyl)-3-oxomorpholin-2-yl)acetic acid] | < 1 nM |
| CC[C@@H](CS(=O)(=O)C(C)(C)C)N1C(=O)[C@@H](CC(=O)O)O[C@H](c2cc(F)cc(Cl)c2)[C@H]1c1ccc(Cl)c(F)c1 (single isomer, unassigned) [Example 426, 2-((2R,5R,6R)-4-((S)-1-(tert-Butylsulfonyl)butan-2-yl)-5-(4-chloro-3-fluorophenyl)-6-(3-chloro-5-fluorophenyl)-3-oxomorpholin-2-yl)acetic acid or 2-((2S,5R,6R)-4-((S)-1-(tert-butylsulfonyl)butan-2-yl)-5-(4-chloro-3-fluorophenyl)-6-(3-chloro-5-fluorophenyl)-3-oxomorpholin-2-yl)acetic acid] | 1 nM |
| CC[C@@H](CS(=O)(=O)C(C)(C)C)N1C(=O)[C@@H](CC(=O)OC)O[C@H](c2cccc(Cl)c2)[C@H]1c1ccc(Cl)cc1 [Example 149, Methyl 2-((2R,5R,6R)-4-((S)-1-(tert-butylsulfonyl)butan-2-yl)-6-(3-chlorophenyl)-5-(4-chlorophenyl)-3-oxomorpholin-2-yl)acetate] | 30 nM |
| CC[C@@H](CS(=O)(=O)C(C)(C)C)N1C(=O)[C@H](CC(=O)OC)O[C@H](c2cccc(Cl)c2)[C@H]1c1ccc(Cl)cc1 [Example 150, Methyl 2-((2S,5R,6R)-4-((S)-1-(tert-butylsulfonyl)butan-2-yl)-6-(3-chlorophenyl)-5-(4-chlorophenyl)-3-oxomorpholin-2-yl)acetate] | 21 nM |
| CC[C@@H](CS(=O)(=O)C(C)(C)C)N1C(=O)[C@H](CCO)O[C@H](c2cccc(Cl)c2)[C@H]1c1ccc(Cl)cc1 [Example 151, (2S,5R,6R)-4-((S)-1-(tert-butylsulfonyl)butan-2-yl)-6-(3-chlorophenyl)-5-(4-chlorophenyl)-2-(2-hydroxyethyl)morpholin-3-one] | 22 nM |
| CC[C@@H](CS(=O)(=O)C(C)(C)C)N1C(=O)[C@@H](CCO)O[C@H](c2cccc(Cl)c2)[C@H]1c1ccc(Cl)cc1 [Example 152, (2R,5R,6R)-4-((S)-1-(tert-butylsulfonyl)butan-2-yl)-6-(3-chlorophenyl)-5-(4-chlorophenyl)-2-(2-hydroxyethyl)morpholin-3-one] | 37 nM |
| CC[C@@H](CS(=O)(=O)C(C)(C)C)N1C(=O)[C@@H](CCOC)O[C@H](c2cccc(Cl)c2)[C@H]1c1ccc(Cl)cc1 [Example 153, (2R,5R,6R)-4-((S)-1-(tert-butylsulfonyl)butan-2-yl)-6-(3-chlorophenyl)-5-(4-chlorophenyl)-2-(2-methoxyethyl)morpholin-3-one] | 59 nM |
| C[C@@H](CSC(C)(C)C)N1C(=O)CO[C@H](c2cccc(Cl)c2)[C@H]1c1ccc(Cl)cc1 [Example 222, (5R,6R)-4-((S)-1-(tert-butylthio)propan-2-yl)-6-(3-chlorophenyl)-5-(4-chlorophenyl)morpholin-3-one] | 170 nM |
